Reference: paper PMC8145144, “Transport of Dietary Anti-Inflammatory Peptide, γ-Glutamyl Valine (γ-EV), across the Intestinal Caco-2 Monolayer” (Nutrients, 2021)
“Also recorded” adds a separate entry of the source.

How the values were obtained:
[1] = in vitro; details: human, Caco-2
[2] = system: Caco-2 cells; experiment: MTT cell viability assay; format: cell-based, human
Procedure: (§1) A clear-bottom 96-well black plate (VWR, #29444-008) was seeded with Caco-2 cells (40,000 cells/well) and grown for 15 days in EMEM media (20% FBS and 1% Pen-Strep) to achieve differentiation of the cells. The MTT assay kit (Abcam, #ab211091) was used to test the cell-viability assay following the manufacturer’s guidelines, as described in the earlier study. For the time-course study, a concentration of 1 mM γ-EV was used for determining the cell toxicity, by incubating it on the Caco-2 cells for 2, 4, and 6 h. For the dose study, the cell toxicity of γ-EV was tested for different doses, such as 2.5, 3, 4, 5, and 10 mM, after incubating the peptide on the cells for 2 h. After the treatment period, the cell media was discarded and replaced with a mixture of 50 μL of the MTT reagent and 50 μL of serum-free EMEM media. After the incubation period of 3 h at 37 °C, the MTT-supplemented media was replaced with 150 μL of MTT solvent. Following that, the plates were incubated on an orbital shaker (200 rpm, 37 °C) (MaxQ 4450, Thermo Fischer Scientific, Waltham, MA, USA) for 15 min, in dark, after which the absorbance of the plate was read at 590 nm (Synergy H1 microplate reader, BioTek, Winooski, VT, USA). The background control readings were subtracted from each of the wells and the cell-viability percentage (%) was calculated using the formula cell viability % = (sample/control) × 100, where the control was cells with no γ-EV treatment, and the sample was the γ-EV treated cells.

[3] = MTT cell viability assay; format: cell-based, human; details: human, Caco-2 cells (differentiated, grown for 15 days), 10 mM, 2 h, read-out: survival rate (cell viability)
Procedure: as §1

[4] = system: PepT1; experiment: in vitro; format: in vitro ADME, human; details: human, Caco-2, Papp after Gly-Sar pretreatment
Procedure: (§2) The route of transport of γ-EV across Caco-2 monolayer cells was determined using 1 mM γ-EV transported for 2 h, following the same protocol as mentioned in Section 2.4. However, in this case, four transport inhibitors were used prior to γ-EV addition in the apical layer, to elucidate the mechanism of transport. Theaflavin 3′-gallate (TF3′G) (20 μM), a cell tight-junction enhancer, was added to the EMEM growth medium 24 h before the experiment. Wortmannin (a transcytosis inhibitor, 1 μM), cytochalasin D (a cell tight-junction disruptor, 0.5 μg/mL), and Gly-Sar (PepT1 transporter inhibitor, 25 mM) were added 30 min before γ-EV addition in the HBSS buffer (pH 6.5). After the treatment was over, the apical and basal layers were collected, and the concentration of γ-EV was analyzed and represented via Papp. For this study, some of the replicate inserts were used for harvesting the Caco-2 cells for analyzing the tight-junction proteins via Western immunoblotting, while some of the inserts were used for visualizing the tight-junction proteins through immunofluorescence.
(§3) LC-MS/MS was used to detect the γ-EV content after the transport study. The instrument used was the Shimadzu LC system (Nexera X2, Columbia, MD, USA), interfaced with a Sciex QTRAP 6500+ mass spectrometer (Redwood City, CA, USA), equipped with a TurboIonSpray (TIS) electrospray ion source (ESI). […] The mobile phases and gradient used were as previously described. Analyst software (version 1.6.3, Redwood City, CA, USA) was used for the sample acquisition control and data analysis. The manufacturer’s recommendations were used for tuning and calibration of the SCIEX QTRAP 6500+ mass spectrometer. The parameters for the ESI operation were as follows: 5500 V ion spray voltage; 500 °C source temperature; ion source gas 1, gas 2, and curtain gas, as 50, 50, and 25, respectively; and collision gas, high. The multiple reaction monitoring (MRM) transitions and the compound settings were previously optimized and described in [11]. An external standard curve, containing different concentrations of the peptide (γ-EV diluted in water), was prepared for the absolute quantification of the peptide. The standards were run alongside the samples (γ-EV in HBSS buffer) in triplicate. The linear range of the standard curve was from 0.016 to 10 μM, with a linear regression slope R^2 of 1 with a CV of <8% for all the dilution points.

[5] = in vitro; format: in vitro ADME, human; details: human
Procedure: as §2, §3

[6] = system: Caco-2 monolayer cells; experiment: in vitro; format: in vitro ADME, human; details: Caco-2
Procedure: as §2, §3

[7] = system: Caco-2 monolayer; design: method as in PMID 32786865; details: 1 mM γ-EV across Caco-2 cells, previous study; cited from earlier work
[8] = system: Caco-2 monolayer
[9] = system: Caco-2 cells; details: cytochalasin D 0.5 μg/mL, across Caco-2 cells; cited from earlier work

Compound CC(C)[C@H](NC(=O)CC[C@H](N)C(=O)O)C(=O)O [γ-EV, γ-glutamyl valine] has a Papp A→B at 2 h, 5 mM [1] of 2.5 ×10⁻⁶ cm/s, a Papp A→B at 4 h, 1 mM [1] of 0.678 ×10⁻⁶ cm/s and a Papp A→B at 6 h, 1 mM [1] of 0.746 ×10⁻⁶ cm/s. For the same compound, the Papp at 2 h, 1 mM [1] was 1.56 ×10⁻⁶ cm/s, the Papp at 2 h, 5 mM [1] was 2.49 ×10⁻⁶ cm/s and the cytotoxicity ([2]; 1 mM, exposure 4 and 6 h) was “not toxic; also recorded: No cytotoxicity”. The cytotoxicity ([2]; 10 mM, 2 h) was “cytotoxic”, the cytotoxicity ([2]; concentrations up to 5 mM, 2 h) was “nontoxic; also recorded: not toxic; also recorded: not cytotoxic” and the viability at 2 h, 10 mM [3] was 21%. It also gave a Papp at 2 h, 1 mM [4] of 0.798 ×10⁻⁶ cm/s, a Papp at 2 h, 1 mM ([5]; Caco-2, Papp after TF3′G pretreatment) of 0.875 ×10⁻⁶ cm/s and a Papp at 2 h, 1 mM ([5]; Caco-2, Papp after cytochalasin D pretreatment) of 4.36 ×10⁻⁶ cm/s. The “decrease of Papp by Gly-Sar vs control” value [6] was 48%, the “apparent permeability coefficient (Papp)” value [7] was 1.56 ± 0.7 ×10⁻⁶ cm/s and the Papp range [8] was 1.5–2.5 × 10^−6. For the same compound, the “change in rate of transport (Papp) vs 1 mM dose” value [8] was “did not have a significant change”.
In the case of HLPLP, the “increase of peptide transport by cytochalasin D” value [9] is listed as 65%.
